Reference: article PMC12040169 (PLOS Biology, 2025)
Where “and” joins values, the source holds several entries; their conditions need not be identical. Identical values can stand only once.

How the values were obtained:
HeLa = conditions: bulk resorufin, single well, 28.5 h, 10 µM, Bulk resorufin fluorescence
in vitro = conditions: human, hela cells, % viability

Compound | % viability (HeLa) | viability at 28.5 h, 10 µM (in vitro) [%]
O=C1CSC(Nc2ccc(Br)cc2)=N1 [CBK026413] | 88.5% | 79.9
O=C(Nc1cncc(OC2CCNCC2)n1)C1CCC1 [CBK026728T] | 94% | 81.9
Cc1sc(NC(=O)C(F)(F)F)c(C(N)=O)c1C [CBK027775] | 94.1% | 99.4
Cc1c(NC(=O)OC(C)C)sc(=S)n1C [CBK028089] | 83.7% | 88.9
O=C(CNS(=O)(=O)c1ccc(Br)cc1)N1CCOCC1 [CBK034469] | 87% | 96
CCOc1ccsc1C(=O)NCc1ccc(OC2CCNCC2)cc1 [CBK036355T] | 114% | 106
COc1ccc([C@@]23CC[C@@H](CNS(=O)(=O)c4cccc(Cl)c4)C[C@@H]2N(C)CC3)cc1OC [CBK042202T] | 91.5% | 99.8
CCOC(=O)N1CCC(NS(=O)(=O)c2ccc3ccccc3c2)CC1 [CBK045452] | 93.1% and 96.6% | 92
CCOC(=O)N1CCC(NS(=O)(=O)c2ccc(Oc3ccccc3)cc2)CC1 [CBK045469] | 97.7% | 98.4
O=C(Nc1ccccc1OC1CCNCC1)C1CCC1 [CBK045901T] | 97.8% | 109
O=C(Nc1ccccc1OC1CCNCC1)C1CCCO1 (stereo not shown) [CBK045905T] | 110% | 91.1
CC(=O)Nc1ccc(S(=O)(=O)Nc2c(C(=O)N3CCN(C)CC3)[nH]c3ccccc23)cc1 [CBK050044] | 93.9% | 94.9
Cc1nn(C)c(N2CCNCC2)c1NC(=O)c1ccoc1 [CBK050302T] | 108% | 99.7
CN1CCN(S(=O)(=O)c2ccc(C(=O)O)cc2)CC1 [CBK062446] | 109% and 101% | 90.4
Cc1c(S(=O)(=O)NCCN2CCNC2=O)cnn1-c1ccccc1 [CBK062603] | 99.3% | 117
CCCNC(=O)[C@@H]1Cc2c([nH]c3ccccc23)[C@]2(CCN(CCOc3ccccc3)C2)N1 [CBK063172T] | 86% | 101
Cc1nn(C)c(Cl)c1S(=O)(=O)Nc1nc(=O)[nH]cc1F [CBK067568] | 97.9% and 87.2% | 99.1
Cc1csc(NC(=O)c2ccc(S(=O)(=O)N3CCCCC3)cc2)n1 [CBK069735] | 103% | 102
COc1cccc(NC(=O)c2sc3ncn(C)c(=O)c3c2C)c1 [CBK071807] | 82.5% | 99.2
COc1ccc(C(=O)Nc2nnc(CC(=O)N/N=C/c3ccccc3OC)s2)cc1 [CBK072076] | 101% | 91.8
COc1nccnc1OC1CCNCC1 [CBK073919T] | 86.5% and 97.3% | 100
CCCc1[nH]nc(O)c1CCc1ccc(Cl)cc1Cl [CBK075082] | 109% | 106
CC(=O)n1cc(C2C(=O)NN=C2C)c2ccccc21 (stereo not shown) [CBK083563] | 82.3% | 102
Nc1c(-c2cccc3cccnc23)cnc2ncccc12 [CBK083682] | 88.7% | 108
Clc1ccc(COc2ccnc(N3CCCN(CCN4CCOCC4)CC3)n2)cc1Cl [CBK083957] | 98.9% | 97.8
Clc1ccc(COc2cncc(OC3CCN(CCN4CCOCC4)C3)n2)cc1Cl (stereo not shown) [CBK084433] | 100% | 87
CS(=O)(=O)Nc1cc2cccnc2nc1-c1ccc2c(c1)CCO2 [CBK085690] | 102% | 104

Compound | % viability (HeLa) | viability at 28.5 h, 10 µM (in vitro) [%]
COc1cc(F)ccc1-c1nc(NS(C)(=O)=O)cc2ccccc12 [CBK085751] | 105% | 97.2
CC(=O)Nc1ccc(NS(=O)(=O)c2ccc(O)c(C(=O)O)c2)cc1 [CBK092150] | 96.9% | 115
COc1cc(-c2ccc(OC3CCNCC3)cc2)cc(OC)c1OC [CBK093682] | 102% | 99
CC(C)(C)c1cc(C(=O)NCCN2CCCC2)n(Cc2ccc(Cl)cc2Cl)n1 [CBK107290] | 110% | 115
O=C(CSC1=NCCS1)Nc1ccnc2ccccc12 [CBK112077] | 98.9% | 101
CN(C)S(=O)(=O)c1cc(C(=O)O)c(Cl)cc1Cl [CBK113173] | 94% | 101
CCOC(=O)c1sc2nccc(Nc3ccccc3)c2c1N [CBK115365] | 91.8% | 90.8
OC1CCn2c1nc1cc(C(F)(F)F)ccc12 (stereo not shown) [CBK115448] | 70.8% | 80.4
COc1ccc(C2N(CC(N)=O)CCOC23CCN(C(=O)c2ccc4ccccc4c2)CC3)cc1 (stereo not shown) [CBK115613] | 101% | 96.9
FC(F)(F)c1ccnc(OCCCc2ccncc2)c1 [CBK115786] | 101% | 109
CCCCOC(=O)c1ccc(NC(=O)Nc2ccc3ccc(Cl)nc3n2)cc1 [CBK115932] | 97.1% | 93.8
COc1ccc2[nH]cc(CCNC(=O)Cc3c[nH]c4ccc(O)cc34)c2c1 [CBK116216] | 84.5% | 98.6
Oc1ccc(-c2cncc(-c3ccc(CN4CCOCC4)cc3)n2)cc1 [CBK123787] | 108% | 104
CC(C)c1ccc(CN2CCC(Cc3ccccc3)CC2)cc1 [CBK126378] | 109% | 99.1
O=C(O)CCS(=O)(=O)c1cccc2cccnc12 [CBK131911] | 92.5% | 102
CCN(Cc1ccccc1)C(=O)NCC1COc2ccccc2O1 (stereo not shown) [CBK155213] | 89.3% | 103
CCN(CC)c1ccc(NC(=O)N2CCN(Cc3ccccc3)CC2)cc1 [CBK155645] | 90.4% | 99.7
CC(=O)NCc1cccc(-c2cc(C(=O)Nc3ccc4c(c3)OCCO4)cnc2N2CCOCC2)c1 [CBK159355C] | 102% | 90.1
COc1ccc(C(=O)Nc2ccc(OCC(=O)O)cc2)cc1 [CBK260894] | 85.6% | 91.4
COc1ccc(C(CC(=O)O)NC(=O)c2ccccc2)cc1 (stereo not shown) [CBK261121] | 93.9% | 89.3
O=C(O)CCNc1c(C(=O)O)cnc2ccccc12 [CBK261139] | 89% | 83.3
COc1ccc(/C=C/C(=O)O)cc1S(=O)(=O)N1CCOCC1 [CBK261247] | 84.7% | 101
O=C(O)/C=C\C(=O)Nc1ccccc1C#Cc1ccccc1 [CBK261680] | 83.2% | 82.9
CC1(C)CC(NC(=O)/C=C/C(=O)O)CC(C)(C)N1 [CBK262018] | 90.9% | 88.4
Cc1ccc(C(=O)NCC(=O)NCC(=O)O)cc1 [CBK262170] | 91.7% | 103
O=C(O)C(Cc1ccc(O)cc1)N1C(=O)c2ccccc2C1=O (stereo not shown) [CBK262479] | 80.4% | 84.1
